Measurements as given in US8350065B2, “5,6-dimethyl xanthone-4-acetic acid derivatives and method of preparing the same” (Grand Pharma (China) Co., Ltd., priority 2008, dated 2013).

Test system: Clone No. 38 tumor
Experiment: Anti-tumor effect by short-term tissue assay in tumor-bearing mice (titled cytotoxic activity)
Type: in vivo
Conditions: mice with Clone No. 38 tumor; for OD (minimum dose of brine injection administered by peritoneal injection and causing activity): peritoneal injection in brine, dose raised in 1.5-fold steps to maximum tolerated dose; for Activity (necrosis of tumor cross section): peritoneal injection, short-term tissue assay
Description: Cytotoxic activity of the compounds represented by formula (I) was measured by the following method.
Clone No. 38 tumor was obtained from Mason Research Inc. and injected into experimental mice. […] Each dosage level was measured independently at least two times (commonly, three times). For each measurement, each group had five mice. The anti-tumor effect of the compounds was measured through short-term tissue assay.
OD refers to the minimum dose (mg/Kg) of brine injection administered by peritoneal injection and causing activity; ++ refers to >90% of cross section is necrotic.

Structure (SMILES) | OD (minimum dose of brine injection administered by peritoneal injection and causing activity) [mg/kg] | Activity (necrosis of tumor cross section)
Cc1cc2c(=O)c3cccc(CC(=O)O)c3oc2c(C)c1C [NO 3, 5,6,7-trimethylxanthone-4-acetic acid] | 30 | ++ (>90% of cross section is necrotic)
Cc1cc(C)c2c(=O)c3cccc(CC(=O)O)c3oc2c1C [NO 4, 5,6,8-trimethylxanthone-4-acetic acid] | 30 | ++ (>90% of cross section is necrotic)
Cc1cc(CC(=O)O)c2oc3c(C)c(C)ccc3c(=O)c2c1 [NO 2, 2,5,6-trimethyl xanthone-4-acetic acid] | 25 | ++ (>90% of cross section is necrotic)
Cc1ccc2c(=O)c3cccc(CC(=O)O)c3oc2c1C [NO 1, 5,6-dimethyl xanthone-4-acetic acid] | 30 | ++ (>90% of cross section is necrotic)
